Literature values as cited in paper PMC12181400, “Leveraging viral genome sequences and machine learning models for identification of potentially selective antiviral agents” (Communications Chemistry, 2025).
Structures can show the parent of a compound that is named as a salt. Where two headings read alike, the source gives them in different places.

Columns and labels:
Details in all cases: cited from earlier work
[1] = system: cell viability (tox21-ar-mda-kb2-luc-antagonist-p2)
[2] = system: cell viability (tox21-ar-mda-kb2-luc-agonist-p3)
[3] = system: cell viability (tox21-car-agonist-p1)
[4] = system: cell viability (tox21-car-antagonist-p1)
[5] = system: cell viability (tox21-ap1-agonist-p1)
[6] = system: cell viability (tox21-are-bla-p1)
[7] = curve rank −9 to 9, 0 = inactive, ref NCATS Tox21 public data browser

Clc1cccc(Cl)c1N=C1NCCN1 [Clonidine]
tox21-ar-mda-kb2-luc-antagonist-p2-viability (curve rank) [1]: 0 | tox21-ar-mda-kb2-luc-agonist-p3-viability (curve rank) [2]: 0 | tox21-car-agonist-p1-viability (curve rank) [3]: 0 | tox21-car-antagonist-p1-viability (curve rank) [4]: 0 | tox21-ap1-agonist-p1-viability (curve rank) [5]: 0 | tox21-are-bla-p1-viability (curve rank) [6]: 0

CC(=O)N[C@@H](CC(C)C)C(=O)O [Acetyl-L-leucine]
tox21-ar-mda-kb2-luc-antagonist-p2-viability (curve rank) [1]: 0 | tox21-ar-mda-kb2-luc-agonist-p3-viability (curve rank) [2]: 0 | tox21-car-agonist-p1-viability (curve rank) [3]: 0 | tox21-car-antagonist-p1-viability (curve rank) [4]: 0 | tox21-ap1-agonist-p1-viability (curve rank) [5]: 0 | tox21-are-bla-p1-viability (curve rank) [6]: 0

COCCc1ccc(OCC(O)CNC(C)C)cc1 (centres unmarked) [Metoprolol tartrate]
tox21-ar-mda-kb2-luc-antagonist-p2-viability (curve rank) [1, 7]: 0 | tox21-ar-mda-kb2-luc-agonist-p3-viability (curve rank) [2, 7]: 0 | tox21-car-agonist-p1-viability (curve rank) [3, 7]: 0 | tox21-car-antagonist-p1-viability (curve rank) [4, 7]: 0 | tox21-ap1-agonist-p1-viability (curve rank) [5, 7]: 0 | tox21-are-bla-p1-viability (curve rank) [6, 7]: 0

NC(=O)c1ccccc1O [Salicylamide]
tox21-ar-mda-kb2-luc-antagonist-p2-viability (curve rank) [1]: 0 | tox21-ar-mda-kb2-luc-agonist-p3-viability (curve rank) [2]: 0 | tox21-car-agonist-p1-viability (curve rank) [3]: 0 | tox21-car-antagonist-p1-viability (curve rank) [4]: 0 | tox21-ap1-agonist-p1-viability (curve rank) [5]: 0 | tox21-are-bla-p1-viability (curve rank) [6]: 0

CCOC(=O)c1ncn2c1CN(C)C(=O)c1cc(F)ccc1-2 [Flumazenil]
tox21-ar-mda-kb2-luc-antagonist-p2-viability (curve rank) [1]: 0 | tox21-ar-mda-kb2-luc-agonist-p3-viability (curve rank) [2]: 0 | tox21-car-agonist-p1-viability (curve rank) [3]: 0 | tox21-car-antagonist-p1-viability (curve rank) [4]: 0 | tox21-ap1-agonist-p1-viability (curve rank) [5]: 0 | tox21-are-bla-p1-viability (curve rank) [6]: 0

CN(C)CCn1nnnc1SCC1=C(C(=O)O)N2C(=O)[C@@H](NC(=O)Cc3csc(N)n3)[C@H]2SC1 [Cefotiam hydrochloride]
tox21-ar-mda-kb2-luc-antagonist-p2-viability (curve rank) [1]: 0 | tox21-ar-mda-kb2-luc-agonist-p3-viability (curve rank) [2]: 0 | tox21-car-agonist-p1-viability (curve rank) [3]: 0 | tox21-car-antagonist-p1-viability (curve rank) [4]: 0 | tox21-ap1-agonist-p1-viability (curve rank) [5]: 0 | tox21-are-bla-p1-viability (curve rank) [6]: 0

CC1=C2[C@H]3OC(=O)[C@@H](C)[C@@H]3CC[C@@]2(C)C=CC1=O [alpha-Santonin]
tox21-ar-mda-kb2-luc-antagonist-p2-viability (curve rank) [1, 7]: 0 | tox21-ar-mda-kb2-luc-agonist-p3-viability (curve rank) [2, 7]: 0 | tox21-car-agonist-p1-viability (curve rank) [3, 7]: 0 | tox21-car-antagonist-p1-viability (curve rank) [4, 7]: 0 | tox21-ap1-agonist-p1-viability (curve rank) [5, 7]: 0 | tox21-are-bla-p1-viability (curve rank) [6, 7]: 0

O=C(O)COc1ccccc1 [Phenoxyacetic acid]
tox21-ar-mda-kb2-luc-antagonist-p2-viability (curve rank) [1, 7]: 0 | tox21-ar-mda-kb2-luc-agonist-p3-viability (curve rank) [2, 7]: 0 | tox21-car-agonist-p1-viability (curve rank) [3, 7]: 0 | tox21-car-antagonist-p1-viability (curve rank) [4, 7]: 0 | tox21-ap1-agonist-p1-viability (curve rank) [5, 7]: 0 | tox21-are-bla-p1-viability (curve rank) [6, 7]: 0

O=C(O)c1cc(=O)c2ccccc2o1 [Chromocarb]
tox21-ar-mda-kb2-luc-antagonist-p2-viability (curve rank) [1, 7]: 0 | tox21-ar-mda-kb2-luc-agonist-p3-viability (curve rank) [2, 7]: 0 | tox21-car-agonist-p1-viability (curve rank) [3, 7]: 0 | tox21-car-antagonist-p1-viability (curve rank) [4, 7]: 0 | tox21-ap1-agonist-p1-viability (curve rank) [5, 7]: 0 | tox21-are-bla-p1-viability (curve rank) [6, 7]: 0

CCN(CC)CCNC(=O)c1cc(Br)c(N)cc1OC [Bromopride]
tox21-ar-mda-kb2-luc-antagonist-p2-viability (curve rank) [1]: 0 | tox21-ar-mda-kb2-luc-agonist-p3-viability (curve rank) [2]: 0 | tox21-car-agonist-p1-viability (curve rank) [3]: 0 | tox21-car-antagonist-p1-viability (curve rank) [4]: 0 | tox21-ap1-agonist-p1-viability (curve rank) [5]: 0 | tox21-are-bla-p1-viability (curve rank) [6]: 0

[H]/N=C(/N)NS(=O)(=O)c1ccc(N)cc1 [Sulfaguanidine]
tox21-ar-mda-kb2-luc-antagonist-p2-viability (curve rank) [1]: 0 | tox21-ar-mda-kb2-luc-agonist-p3-viability (curve rank) [2]: 0 | tox21-car-agonist-p1-viability (curve rank) [3]: 0 | tox21-car-antagonist-p1-viability (curve rank) [4]: 0 | tox21-ap1-agonist-p1-viability (curve rank) [5]: 0 | tox21-are-bla-p1-viability (curve rank) [6]: 0

CCS(=O)(=O)CCn1c([N+](=O)[O-])cnc1C [Tinidazole]
tox21-ar-mda-kb2-luc-antagonist-p2-viability (curve rank) [1]: 0 | tox21-ar-mda-kb2-luc-agonist-p3-viability (curve rank) [2]: 0 | tox21-car-agonist-p1-viability (curve rank) [3]: 0 | tox21-car-antagonist-p1-viability (curve rank) [4]: 0 | tox21-ap1-agonist-p1-viability (curve rank) [5]: 0 | tox21-are-bla-p1-viability (curve rank) [6]: 0

Cc1ncsc1CCCl [Clomethiazole]
tox21-ar-mda-kb2-luc-antagonist-p2-viability (curve rank) [1, 7]: 0 | tox21-ar-mda-kb2-luc-agonist-p3-viability (curve rank) [2, 7]: 0 | tox21-car-agonist-p1-viability (curve rank) [3, 7]: 0 | tox21-car-antagonist-p1-viability (curve rank) [4, 7]: 0 | tox21-ap1-agonist-p1-viability (curve rank) [5, 7]: 0 | tox21-are-bla-p1-viability (curve rank) [6, 7]: 0

OC(c1ccccc1)(c1ccccc1)C1CCNCC1 [Azacyclonol]
tox21-ar-mda-kb2-luc-antagonist-p2-viability (curve rank) [1, 7]: 0 | tox21-ar-mda-kb2-luc-agonist-p3-viability (curve rank) [2, 7]: 0 | tox21-car-agonist-p1-viability (curve rank) [3, 7]: 0 | tox21-car-antagonist-p1-viability (curve rank) [4, 7]: 0 | tox21-ap1-agonist-p1-viability (curve rank) [5, 7]: 0 | tox21-are-bla-p1-viability (curve rank) [6, 7]: 0

CC(Cc1ccccc1)(NC(=O)CN)c1ccccc1 (centres unmarked) [Remacemide hydrochloride]
tox21-ar-mda-kb2-luc-antagonist-p2-viability (curve rank) [1, 7]: 0 | tox21-ar-mda-kb2-luc-agonist-p3-viability (curve rank) [2, 7]: 0 | tox21-car-agonist-p1-viability (curve rank) [3, 7]: 0 | tox21-car-antagonist-p1-viability (curve rank) [4, 7]: 0 | tox21-ap1-agonist-p1-viability (curve rank) [5, 7]: 0 | tox21-are-bla-p1-viability (curve rank) [6, 7]: 0

CCC1(c2ccccc2)C(=O)NCNC1=O [Primidone]
tox21-ar-mda-kb2-luc-antagonist-p2-viability (curve rank) [1]: 0 | tox21-ar-mda-kb2-luc-agonist-p3-viability (curve rank) [2]: 0 | tox21-car-agonist-p1-viability (curve rank) [3]: 0 | tox21-car-antagonist-p1-viability (curve rank) [4]: 0 | tox21-ap1-agonist-p1-viability (curve rank) [5]: 0 | tox21-are-bla-p1-viability (curve rank) [6]: 0

Cc1nc(C)c(Cl)c(O)c1Cl [Clopidol]
tox21-ar-mda-kb2-luc-antagonist-p2-viability (curve rank) [1, 7]: 0 | tox21-ar-mda-kb2-luc-agonist-p3-viability (curve rank) [2, 7]: 0 | tox21-car-agonist-p1-viability (curve rank) [3, 7]: 0 | tox21-car-antagonist-p1-viability (curve rank) [4, 7]: 0 | tox21-ap1-agonist-p1-viability (curve rank) [5, 7]: -0.67 | tox21-are-bla-p1-viability (curve rank) [6, 7]: 0

O=C(NCCO[N+](=O)[O-])c1cccnc1 [Nicorandil]
tox21-ar-mda-kb2-luc-antagonist-p2-viability (curve rank) [1]: 0 | tox21-ar-mda-kb2-luc-agonist-p3-viability (curve rank) [2]: 0 | tox21-car-agonist-p1-viability (curve rank) [3]: 0 | tox21-car-antagonist-p1-viability (curve rank) [4]: 0 | tox21-ap1-agonist-p1-viability (curve rank) [5]: 0 | tox21-are-bla-p1-viability (curve rank) [6]: 0

CN1C(=O)CCS(=O)(=O)C1c1ccc(Cl)cc1 (centres unmarked) [Chlormezanone]
tox21-ar-mda-kb2-luc-antagonist-p2-viability (curve rank) [1, 7]: 0 | tox21-ar-mda-kb2-luc-agonist-p3-viability (curve rank) [2, 7]: 0 | tox21-car-agonist-p1-viability (curve rank) [3, 7]: 0 | tox21-car-antagonist-p1-viability (curve rank) [4, 7]: 0 | tox21-ap1-agonist-p1-viability (curve rank) [5, 7]: 0 | tox21-are-bla-p1-viability (curve rank) [6, 7]: 0

C=CCNC(N)=S [Allylthiourea]
tox21-ar-mda-kb2-luc-antagonist-p2-viability (curve rank) [1, 7]: 0 | tox21-ar-mda-kb2-luc-agonist-p3-viability (curve rank) [2, 7]: 0 | tox21-car-agonist-p1-viability (curve rank) [3, 7]: 0 | tox21-car-antagonist-p1-viability (curve rank) [4, 7]: 0 | tox21-ap1-agonist-p1-viability (curve rank) [5, 7]: 0 | tox21-are-bla-p1-viability (curve rank) [6, 7]: 0

Cc1oncc1C(=O)Nc1ccc(C(F)(F)F)cc1 [Leflunomide]
tox21-ar-mda-kb2-luc-antagonist-p2-viability (curve rank) [1]: 0 | tox21-ar-mda-kb2-luc-agonist-p3-viability (curve rank) [2]: 0 | tox21-car-agonist-p1-viability (curve rank) [3]: 0 | tox21-car-antagonist-p1-viability (curve rank) [4]: 0 | tox21-ap1-agonist-p1-viability (curve rank) [5]: 0 | tox21-are-bla-p1-viability (curve rank) [6]: 0

CC(C)(Sc1cc(C(C)(C)C)c(O)c(C(C)(C)C)c1)Sc1cc(C(C)(C)C)c(O)c(C(C)(C)C)c1 [Probucol]
tox21-ar-mda-kb2-luc-antagonist-p2-viability (curve rank) [1]: 0 | tox21-ar-mda-kb2-luc-agonist-p3-viability (curve rank) [2]: 0 | tox21-car-agonist-p1-viability (curve rank) [3]: 0 | tox21-car-antagonist-p1-viability (curve rank) [4]: 0 | tox21-ap1-agonist-p1-viability (curve rank) [5]: 0 | tox21-are-bla-p1-viability (curve rank) [6]: 0

CCC(C)(CN(C)C)OC(=O)c1ccccc1.Cl (centres unmarked) [Amylocaine hydrochloride]
tox21-car-antagonist-p1-viability (curve rank) [4, 7]: 0

CCN(Cc1ccncc1)C(=O)C(CO)c1ccccc1 (centres unmarked) [Tropicamide]
tox21-car-agonist-p1-viability (curve rank) [3, 7]: 0 | tox21-car-antagonist-p1-viability (curve rank) [4, 7]: 0 | tox21-ap1-agonist-p1-viability (curve rank) [5, 7]: 0 | tox21-are-bla-p1-viability (curve rank) [6, 7]: 0
